The text below walks through data of ChEMBL document CHEMBL1133859, “Unprecedented sugar-dependent in vivo antitumor activity of carbohydrate-pendant cis-diamminedichloroplatinum(II) complexes” (Bioorg Med Chem Lett, 2001).

A short description of the data set: Lethal dose in mice. In kind it is toxicity. The following applies: mouse, in vivo.

Usually LD50 stands for the dose expected to kill half of the subjects tested. Low readings indicate greater toxicity, high ones lower toxicity. Sequence CISPLATIN came in with an LD50 of 10 mg/kg.
